# Measured values taken from patent publication US20220202811A1, “TREATMENT FOR RETINOIC ACID RECEPTOR-RELATED ORPHAN RECEPTOR Ɣ (RORƔ)-DEPENDENT CANCERS” (The Regents of the University of California, priority 2019, published 2022).
# Entries after “also recorded” stand apart in the source; their conditions may differ.
# Experiments:
# [1] = tested on: non-germline KRAS/p53 organoids; experiment: non-germline KRAS/p53 organoid assay; type: cell-based, mouse; settings: 3 μM, 6 μM, 9 μM JTE-151; 4 days
# Method: First, pharmacologic blockade of RORγ using JTE-151 was tested on pancreatic cell organoids as described above. Pancreatic cancer cells derived from two genetically engineered mouse models (GEMMS) were used for the organoid studies (FIGS. 47, 48). […] Then, electroporation was used to promote incorporation of the DNA into the pancreatic cells.
# About 4,000 organoids from each of the non-germline and germline mouse models were plated as single cells in multi-well plates, as described above, and treated with JTE-151 for 4 days (FIG. 48). Organoid number and size were analyzed after treatment. […] In the quantification, different doses of JTE-151 were plotted along the horizontal axis, and the volume of organoids was expressed as relative to control along the vertical axis. […] Organoid volume was then analyzed. Different doses of JTE-151 were plotted along the horizontal axis, and the vertical axis represents relative organoid volume to control.
# [2] = tested on: human pancreatic cancer Fast Growing (FG) cells; experiment: FG organoid assay; type: cell-based
# Method: Similarly, the effects of JTE-151 at different doses were examined on human pancreatic cancer Fast Growing (FG) cells using the organoid assay (FIG. 69). Three doses of JTE-151 were tested: 0.3 μM, 1 μM, and 3 μM.
compound,measurement,setting,value
"Cc1ccc(NC(=O)C[C@H](CCC(=O)O)c2noc([C@H]3C[C@@H](CC(C)(C)C)C3)c2C2CC2)c(Cl)c1 [JTE-151, (4S)-6-[(2-chloro-4-methylphenyl)amino]-4-{4-cyclopropyl-5-[cis-3-(2,2-dimethylpropyl)cyclobutyl]isoxazol-3-yl}-6-oxohexanoic acid]",organoid growth,[1],visibly and significantly impaired; also recorded: inhibited
same,FG organoid growth,"[2]; JTE-151 (0.3 μM, 1 μM, 3 μM) in combination with 0.05 nM gemcitabine",significant inhibition
same,FG organoid growth,"[2]; JTE-151 alone at 0.3 μM, 1 μM, and 3 μM",significant inhibition
